Read-outs that look alike come from different tables or passages of the source.
How the values were obtained:
[1] = system: drug sensitive D6 clone of P. falciparum; experiment: SYBR Green I fluorescence-based antiplasmodial assay, D6; type: cell-based, Plasmodium falciparum; settings: P. falciparum D6, 72 hours
Description: (§1) Laboratory strains of P. falciparum were cultured in human erythrocytes by standard methods (Trager, W.; Jensen, J. B. Human malaria parasites in continuous culture. Science 1976, 193 (4254), 673-675. DOI: 10.1126/science.781840 from NLM Medline). The parasites were grown in culture medium with fresh human erythrocytes maintained at 2% hematocrit at 37° C. in low-oxygen conditions (5% 02, 5% CO2, 90% N2). The culture medium used was RPMI-1640 with 25 mg/L gentamicin sulfate, 45 mg/L Albumax II, 10 mM glucose, and 25 mM HEPES buffer (Smilkstein et al., Simple and inexpensive fluorescence-based technique for high-throughput antimalarial drug screening. Antimicrob Agents Chemother 2004, 48 (5), 1803-1806. DOI: 10.1128/aac.48.5.1803-1806.2004). Cultures were maintained at less than 10% parasitemia by transfer of infected cells to fresh erythrocytes and culture medium every 3 or 4 days. […]
(§2) In vitro antimalarial activity was measured using the SYBR Green I fluorescence-based assay. […] Experiments were set up in quadruplicate in 96-well plates with a 100 μL total volume per well with 2% hematocrit, 0.2% parasitemia, and drug dilutions between 0.25 and 250 nM in complete culture medium described above. The plates were incubated at 37° C. in low-oxygen conditions described previously for 72 hours, at which point 100 μL of fluorescent dye-detergent mixture (0.2 μL SYBR Green I: 1 mL lysing buffer) was added and the plates incubated in the dark at room temperature for one hour. After incubation with the fluorescent dye, a 96-well plate reader with excitation wavelength set at 497 nm and emission at 520 nm, was used to measure fluorescence of each well.
(§3) Each of the ADC derivatives was tested for antiplasmodial activity against the drug sensitive D6 clone of P. falciparum as well as one or more of the following multidrug resistant strains: Dd2 or 7G8. The method used for antiplasmodial testing is known as the SyBr Green assay and it was described by us in 2004 (Smilkstein et al., Antimicrob Agents Chemother 2004, 48 (5), 1803-1806).

[2] = system: multi-drug resistant (Dd2) P. falciparum; experiment: SYBR Green I fluorescence-based antiplasmodial assay, Dd2; type: cell-based, Plasmodium falciparum; settings: for IC50: P. falciparum Dd2, 72 hours; for cross resistance, Dd2 vs D6: ratio of IC50 in Dd2 and D6 strains
Description: as §1, §2, §3

[3] = HepG2 cytotoxicity assay (resazurin); type: cell-based; settings: human, HepG2, 24 h drug then 24 h drug-free, read-out: CC50 v HepG2
Description: Final compounds were assessed for mammalian cytotoxicity using an immortalized human liver carcinoma cell line (HepG2) using previously described methods.^1 In short, final compounds were prepared in DMSO as 10 mM stock solutions. […] To 96-well flat-bottomed tissue culture plates, HepG2 cells were added at 2×10 4 density with an additional 160 μL of complete culture media per well and were incubated overnight at 37° C. to allow for adherence. Compound stocks aliquots were applied as 40 μL solutions in complete media to each well in a serial dilution series that ranged from […] as duplicates. A 10 mM DMSO stock of mefloquine was used as a positive control. […] 20 μL of resazurin (Alamar Blue) in PBS buffer was added to each well to a final concentration of 10 μM, and the plates were incubated for 3 h. Fluorescence was measured at 560 nm excitation and 590 nm emission bands using a Spectramax iD3 plate reader. Fluorescence output values were normalized to the untreated control wells and plotted against the logarithm of drug concentration.

[4] = Pharmacokinetic study in mice; type: in vivo
[5] = system: Plasmodium yoelii; experiment: In vivo efficacy against murine malaria, modified 4-day test; settings: for ED50 (mg/kg/d) vs Py / ED90 (mg/kg/d) vs Py: P. yoelii in mice, oral once daily for 4 days, PEG-400
Description: (§4) In vivo efficiency: ADCs antiplasmodial efficiency (ED50, ED90) assessed in murine malaria model against P. yoelii (Py). Metabolic stability: ADCs were assessed for metabolic stability (t1/2, Clint) in pooled murine liver microsomes. Referring to Table 1, ND=not detected.
Selected ADC derivatives were also tested in vivo in mice using the standard 4-day test protocol as described previously. For this work the rodent malaria parasite Plasmodium yoelii was used and the mice were CF1 female. Briefly, animals were inoculated with 35,000 parasitized red blood cells (obtained from a donor animal) on Day 0 of the experiment. Beginning on the next day (Day 1) and again on the 3 succeeding days (Days 2, 3, and 4) the animals received oral doses of the test agent dissolved in the dosing vehicle PEG-400. On Day 5 a blood sample was taken from the tail vein and examined microscopically for the presence of parasites using Giemsa stained and methanol fixed blood smears.
The in vivo efficacy of selected ADC derivatives was determined against blood-stage Plasmodium yoelii using a modified 4-day test. Female mice (Charles River Laboratories) were infected intravenously with 35,000 P. yoelii parasitized erythrocytes from a donor animal (Kenya MR4 MRA-428). […] Five days after inoculation, percent parasitemia was calculated by examination of Giemsa-stained blood smears.

[6] = Metabolic stability in pooled murine liver microsomes; type: in vitro ADME; settings: for half-life: mouse
Description: as §4

[7] = Plasmodium falciparum, D6, 72 h
[8] = Plasmodium falciparum, DD2, 72 h
[9] = mouse, plasma, PO 5 mg/kg in PEG400, male CD1 mice
[10] = mouse, plasma, PO 5 mg/kg in PEG400, male CD1 mice, non-compartmental

SMILES	IC50 [1, 7] [nM]	IC50 [2, 8] [nM]	CC50 at 24 h ([3]; HepG2 cells) [nM]	CIint [6] [mL/min/kg]	half-life [6] [min]	also measured
FC(F)(F)c1ccc(N2CCN(c3ccc(Nc4ccnc5cc(Cl)ccc45)cc3)CC2)cc1 [ADC-018, 7-chloro-N-(4-(4-(4-(trifluoromethyl)phenyl)piperazin-1-yl)phenyl)quinolin-4-amine]	43.3	110	> 200000	–	–	–
CCN1CCN(c2ccc(Nc3ccnc4cc(C(F)(F)F)ccc34)cc2)CC1 [ADC-024, N-(4-(4-ethylpiperazin-1-yl)phenyl)-7-(trifluoromethyl)quinolin-4-amine]	–	–	> 200000	–	–	–
Clc1ccc2c(Nc3ccc(N4CCN(C5CC5)CC4)cc3)ccnc2c1 [ADC-013, 7-chloro-N-(4-(4-cyclopropylpiperazin-1-yl)phenyl)quinolin-4-amine]	39.2	84.4	> 200000	–	–	–
Clc1ccc2c(Nc3ccc(C4CCNCC4)cc3)ccnc2c1 [ADC-015, 7-chloro-N-(4-(piperidin-4-yl)phenyl)quinolin-4-amine]	10.2	75.2	58000	–	–	–
CC(C)CN1CCC(c2ccc(Nc3ccnc4cc(Cl)ccc34)cc2)CC1 [ADC-028, 7-chloro-N-(4-(1-isobutylpiperidin-4-yl)phenyl)quinolin-4-amine]	7.9	17.4	–	–	–	CC50 at 24 h [3]: > 200000 nM; MRTIast ([4]; PO 5 mg/kg in PEG400, male CD1 mice): 1160 min; AUC(0-inf) [4, 9]: 3160 ng·h/mL; AUC(0-t) [4, 9]: 2360 ng·h/mL; MRT inf [4, 9]: 35.6 h; Cmax [4, 10]: 67.7 ng/mL; Tmax [4, 10]: 60 min; half-life ([4]; mouse, plasma, PO 5 mg/kg, male CD1 mice, Rsq_adjusted 0.829 (<0.9: might not be accurately estimated)): 1510 min
CCN1CCN(c2ccc(Nc3ccnc4cc(Br)ccc34)cc2)CC1 [ADC-025, 7-bromo-N-(4-(4-ethylpiperazin-1-yl)phenyl)quinolin-4-amine]	10.3	19.2	48000	–	–	–
CCN1CCC(c2ccc(Nc3ccnc4cc(Cl)ccc34)cc2)CC1 [ADC-020, 7-chloro-N-(4-(1-ethylpiperidin-4-yl)phenyl)quinolin-4-amine]	4.56	13.4	111000	496.7	11	ED50 (mg/kg/d) vs Py [5]: 1.8 mg/kg/day; ED90 (mg/kg/d) vs Py [5]: 13.4 mg/kg/day
CCCCN1CCC(c2ccc(Nc3ccnc4cc(Cl)ccc34)cc2)CC1 [ADC-027, N-(4-(1-butylpiperidin-4-yl)phenyl)-7-chloroquinolin-4-amine]	9.03	20.4	> 200000	129.7	42.1	–
CC(C)(C)N1CCN(c2ccc(Nc3ccnc4cc(Cl)ccc34)cc2)CC1 [ADC-017, N-(4-(4-(tert-butyl)piperazin-1-yl)phenyl)-7-chloroquinolin-4-amine]	5.18	9.17	> 200000	0.00	–	ED50 (mg/kg/d) vs Py [5]: 4.0 mg/kg/day; ED90 (mg/kg/d) vs Py [5]: 7.6 mg/kg/day; T1/2 (min) [6]: ∞
CCCN1CCC(c2ccc(Nc3ccnc4cc(Cl)ccc34)cc2)CC1 [ADC-026, 7-chloro-N-(4-(1-propylpiperidin-4-yl)phenyl)quinolin-4-amine]	9.25	19.3	> 200000	78.0	70	–
CCN1CCN(c2ccc(Nc3ccnc4cc(Cl)ccc34)cc2)CC1 [ADC-009, 7-chloro-N-(4-(4-ethylpiperazin-1-yl)phenyl)quinolin-4-amine]	~13	~13	> 200000	2936	1.86	IC50 [1]: 13.2 nM; IC50 [2]: 12.7 nM; ED50 (mg/kg/d) vs Py [5]: 1.5 mg/kg/day; ED90 (mg/kg/d) vs Py [5]: 8.4 mg/kg/day
Clc1ccc2c(Nc3ccc(N4CCN(Cc5ccccc5)CC4)cc3)ccnc2c1 [ADC-008, N-(4-(4-benzylpiperazin-1-yl)phenyl)-7-chloroquinolin-4-amine]	16.1	15.9	> 200000	391.9	13.9	cross resistance, Dd2 vs D6 [2]: Equipotency
CN1CCN(c2ccc(Nc3ccnc4cc(Cl)ccc34)cc2)CC1 [ADC-010, 7-chloro-N-(4-(4-methylpiperazin-1-yl)phenyl)quinolin-4-amine]	13.3	14	185000	3784	1.44	cross resistance, Dd2 vs D6 [2]: Equipotency
CC(C)CN1CCN(c2ccc(Nc3ccnc4cc(Cl)ccc34)cc2)CC1 [ADC-030, 7-chloro-N-(4-(4-isobutylpiperazin-1-yl)phenyl)quinolin-4-amine]	9.79	17.8	> 200000	391.9	13.9	–
CC(C)(C)OC(=O)N1CCN(c2ccc(Nc3ccnc4cc(Cl)ccc34)cc2)CC1 [ADC-012, tert-butyl 4-(4-((7-chloroquinolin-4-yl)amino)phenyl)piperazine-1-carboxylate]	–	–	> 200000	–	–	–
Clc1ccc2c(Nc3ccc(N4CCNCC4)cc3)ccnc2c1 [ADC-011, 7-chloro-N-(4-(piperazin-1-yl)phenyl)quinolin-4-amine]	21.8	65.8	54000	–	–	–
CCC(C)N1CCC(c2ccc(Nc3ccnc4cc(Cl)ccc34)cc2)CC1 (stereo not shown) [ADC-029, N-(4-(1-(sec-butyl)piperidin-4-yl)phenyl)-7-chloroquinolin-4-amine]	13.8	19	> 200000	98.3	55.5	–
CCN1CCN(c2ccc(Nc3ccnc4ccc(Cl)cc34)cc2)CC1 [ADC-014, 6-chloro-N-(4-(4-ethylpiperazin-1-yl)phenyl)quinolin-4-amine]	69.8	66	> 200000	–	–	cross resistance, Dd2 vs D6 [2]: Equipotency
CC(C)N1CCC(c2ccc(Nc3ccnc4cc(Cl)ccc34)cc2)CC1 [ADC-021, 7-chloro-N-(4-(1-isopropylpiperidin-4-yl)phenyl)quinolin-4-amine]	4.94	11.6	> 200000	123.6	44.1	ED50 (mg/kg/d) vs Py [5]: 1.1 mg/kg/day; ED90 (mg/kg/d) vs Py [5]: 4.1 mg/kg/day; ED50 ([5]; P. yoelii, CF1 female mice, 4-day test, oral in PEG-400): 1.1 mg/kg/day
